One test deals with T1, human TREK-1 (Homo sapiens, UniProt O95069).
T1 construct: expressed in transfected cells
T1 sequence (O95069 1-426): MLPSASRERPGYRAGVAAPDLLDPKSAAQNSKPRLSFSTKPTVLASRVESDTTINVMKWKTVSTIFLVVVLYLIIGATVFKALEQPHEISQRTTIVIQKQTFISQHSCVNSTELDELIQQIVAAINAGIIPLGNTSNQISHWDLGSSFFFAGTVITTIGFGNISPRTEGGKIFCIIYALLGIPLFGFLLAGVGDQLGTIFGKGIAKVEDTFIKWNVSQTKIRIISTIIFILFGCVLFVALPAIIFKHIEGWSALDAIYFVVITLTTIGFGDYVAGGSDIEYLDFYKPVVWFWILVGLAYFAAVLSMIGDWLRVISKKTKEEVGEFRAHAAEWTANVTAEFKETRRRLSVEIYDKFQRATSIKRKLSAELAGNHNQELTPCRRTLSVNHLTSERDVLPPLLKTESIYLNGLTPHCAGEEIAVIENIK
Description: TREK-1 Thallium (Tl+) flux assay, Method 1. It counts as cell-based. The conditions noted are these: TREK-1 Thallium (Tl+) flux assay; no *^12 (Method 2) mark on these rows. The method in brief:
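CHO-K1 cells stably expressing human TREK-1, loaded with Thallos dye, received compound or 0.3% DMSO vehicle for 10 min before thallium stimulus buffer. ΔRatio is fluorescence at 25 s after thallium addition over mean pre-addition fluorescence; % inhibition calculated from it.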
In the case of `N#CC1CC(n2ncc(Cl)c2C(=O)Nc2ncc(C#Cc3ccccc3)cc2F)C1` (stereo not drawn) [Compound 266, 4-chloro-1-(3-cyanocyclobutyl)-N-(3-fluoro-3-(phenylethynyl)pyridin-2-yl)-1H-pyrazole-5-carboxamide], the IC50 (usually the concentration at which inhibition is half-maximal) turned out to be 0.44 µM.

Consider `Cc1cc(OCc2ccccc2)ccc1NC(=O)c1c(Cl)cnn1[C@H]1CC[C@@H](NC(=O)C2CC2)CC1` [Compound 385, N-(4-(benzyloxy)-2-methylphenyl)-4-chloro-1-(cis-4-(cyclopropanecarboxamido)cyclohexyl)-1H-pyrazole-5-carboxamide], for which the IC50 was 0.83 µM.

As to `CC(=O)N1CCC[C@H](Cn2ncc(Cl)c2C(=O)Nc2ncc(C#Cc3ccccc3)cc2F)C1` [Compound 262, (S)-1-((1-acetylpiperidin-3-yl)methyl)-4-chloro-N-(3-fluoro-5-(phenylethynyl)pyridin-2-yl)-1H-pyrazole-5-carboxamide], the IC50 stood at 0.43 µM.

In turn, `CC(C)(C#N)Cn1ncc(Cl)c1C(=O)Nc1ncc(C#Cc2ccccc2)cc1F` [Compound 234, 4-chloro-1-(2-cyano-2-methylpropyl)-N-(3-fluoro-5-(phenylethynyl)pyridin-2-yl)-1H-pyrazole-5-carboxamide] displayed an IC50 of 0.36 µM.

`Cc1cc(C#Cc2ccc(F)cc2)cnc1NC(=O)c1c(Cl)cnn1C1CC2(CCN(C(=O)C(C)C)C2)C1` (stereo not drawn) [Compound 332, 4-chloro-N-{5-[(4-fluorophenyl)ethynyl]-3-methylpyridin-2-yl}-1-[6-(2-methylpropanoyl)-6-azaspiro[3.4]octan-2-yl]-1H-pyrazole-5-carboxamide] yielded an IC50 of 0.66 µM.

As to `Cc1cc(C#Cc2ccccc2F)cnc1NC(=O)c1c(Cl)cnn1CCC1CCN(C(=O)C2CC2)CC1` [Compound 226, 4-chloro-1-(2-(1-(cyclopropanecarbonyl)piperidin-4-yl)ethyl)-N-(5-((2-fluorophenyl)ethynyl)-3-methylpyridin-2-yl)-1H-pyrazole-5-carboxamide], the IC50 came out at 0.35 µM.

For `CO[C@@H](C)Cn1ncc(Cl)c1C(=O)Nc1ncc(C#Cc2ccccc2)cc1C` [Compound 218, (S)-4-chloro-1-(2-methoxypropyl)-N-(3-methyl-5-(phenylethynyl)pyridin-2-yl)-1H-pyrazole-5-carboxamide], the IC50 was 0.34 µM.

In the case of `Cc1cc(C#Cc2ccc(F)cc2)cnc1NC(=O)c1c(Cl)cnn1CC1(F)CCN(C(=O)C(C)C)CC1` [Compound 339, 4-chloro-1-((4-fluoro-1-isobutyrylpiperidin-4-yl)methyl)-N-(5-((4-fluorophenyl)ethynyl)-3-methylpyridin-2-yl)-1H-pyrazole-5-carboxamide], the midpoint of inhibition, the IC50, lay at 0.73 µM.

For the compound `CCN1CC(n2ncc(Cl)c2C(=O)Nc2ncc(C#Cc3ccccc3)cc2C)C1` [Compound 377, 4-chloro-1-(1-ethylazetidin-3-yl)-N-(3-methyl-5-(phenylethynyl)pyridin-2-yl)-1H-pyrazole-5-carboxamide], the IC50 was 1.71 µM.

The compound `CC(=O)N1C[C@H]2C[C@H](n3ncc(Cl)c3C(=O)Nc3ncc(C#Cc4ccc(F)cc4)cc3C)C[C@H]2C1` [Compound 331, 1-[(3aR,5s,6aS)-2-acetyloctahydrocyclopenta[c]pyrrol-5-yl]-4-chloro-N-{5-[(4-fluorophenyl)ethynyl]-3-methylpyridin-2-yl}-1H-pyrazole-5-carboxamide] gave an IC50 of 0.66 µM.

Consider `Cc1cc(C#Cc2ccccc2)cnc1NC(=O)c1c(Cl)cnn1C1CCC(C#N)C1` (stereo not drawn) [Compound 289, 4-chloro-1-(3-cyanocyclopentyl)-N-(3-methyl-5-(phenylethynyl)pyridin-2-yl)-1H-pyrazole-5-carboxamide], for which half-maximal inhibition (IC50) required 0.51 µM.

As to `Cc1cc(OCc2ccccc2)ccc1NC(=O)c1c(Cl)cnn1[C@H]1CC[C@@H](NC(=O)CC(C)C)CC1` [Compound 382, N-(4-(benzyloxy)-2-methylphenyl)-4-chloro-1-(cis-4-(3-methylbutanamido)cyclohexyl)-1H-pyrazole-5-carboxamide], it took 0.61 µM to reach half-maximal inhibition (IC50).

The compound `CC(C)(C)OC(=O)N1CC(n2ncc(Cl)c2C(=O)Nc2ncc(C#Cc3ccccc3)cc2F)C1` [Compound 243, tert-butyl 3-(4-chloro-5-((3-fluoro-5-(phenylethynyl)pyridin-2-yl)carbamoyl)-1H-pyrazol-1-yl)azetidine-1-carboxylate] yielded an IC50 of 0.38 µM.

`Cc1cc(C#Cc2ccccc2)cnc1NC(=O)c1c(Cl)nn(C)c1-c1ccc2c(cnn2C)c1` [Compound 364, 3-chloro-1-methyl-5-(1-methyl-1H-indazol-5-yl)-N-(3-methyl-5-(phenylethynyl)pyridin-2-yl)-1H-pyrazole-4-carboxamide] had an IC50 of 0.91 µM.

`CC(C)C(=O)N1CCC(Cn2ncc(Cl)c2C(=O)Nc2ncc(C#Cc3ccccc3)cc2F)C(F)(F)C1` (stereo not drawn) [Compound 216, 4-chloro-1-((3,3-difluoro-1-isobutyrylpiperidin-4-yl)methyl)-N-(3-fluoro-5-(phenylethynyl)pyridin-2-yl)-1H-pyrazole-5-carboxamide] returned an IC50 of 0.33 µM.

Turning to `Cc1cc(C#Cc2ccccc2)cnc1NC(=O)c1c(Cl)cnn1[C@@H]1CCOC1` [Compound 224, (R)-4-chloro-N-(3-methyl-5-(phenylethynyl)pyridin-2-yl)-1-(tetrahydrofuran-3-yl)-1H-pyrazole-5-carboxamide], the IC50 was 0.75 µM.

For the compound `CC(=O)N1CCC(n2ncc(Cl)c2C(=O)Nc2cnc(C#Cc3ccccc3)c(F)c2)CC1` [Compound 378, 1-(1-acetylpiperidin-4-yl)-4-chloro-N-(5-fluoro-6-(phenylethynyl)pyridin-3-yl)-1H-pyrazole-5-carboxamide], the IC50 is 5.68 µM.

Still in this test, the particulars now being: TREK-1 Thallium (Tl+) flux assay; values without footnote *12 are Method 1.
For `CCC(=O)N1CCC(n2ncc(Cl)c2C(=O)Nc2ncc(C#Cc3cccs3)cc2F)CC1` [Compound 67, 4-chloro-N-(3-fluoro-5-(thiophen-2-ylethynyl)pyridin-2-yl)-1-(1-propionylpiperidin-4-yl)-1H-pyrazole-5-carboxamide], inhibition was half-maximal at 0.15 µM (IC50).

Turning to `CC(=O)N1CCCC(Cn2ncc(Cl)c2C(=O)Nc2ncc(C#Cc3ccccc3)cc2F)C1` (stereo not drawn) [Compound 177, 1-((1-acetylpiperidin-3-yl)methyl)-4-chloro-N-(3-fluoro-5-(phenylethynyl)pyridin-2-yl)-1H-pyrazole-5-carboxamide], the IC50 worked out at 0.27 µM.

Compound `CC(=O)N1CCC(Cn2ncc(Cl)c2C(=O)Nc2ncc(C#Cc3ccccc3)cc2F)C1` (stereo not drawn) [Compound 44, 1-((1-acetylpyrrolidin-3-yl)methyl)-4-chloro-N-(3-fluoro-5-(phenylethynyl)pyridin-2-yl)-1H-pyrazole-5-carboxamide] returned an IC50 of 0.13 µM.

The compound `Cc1cc(C#Cc2ccc(F)cc2)cnc1NC(=O)c1c(Cl)cnn1C1CCN(C(=O)C2CC2)CC1` [Compound 101, 4-chloro-1-(1-(cyclopropanecarbonyl)piperidin-4-yl)-N-(5-((4-fluorophenyl)ethynyl)-3-methylpyridin-2-yl)-1H-pyrazole-5-carboxamide] returned an IC50 of 0.19 µM.

On to `Cc1cc(C#Cc2ccc(F)cc2)cnc1NC(=O)c1c(Cl)cnn1C1CCN(C(=O)C(C)C)CC1` [Compound 151, 4-chloro-N-(5-((4-fluorophenyl)ethynyl)-3-methylpyridin-2-yl)-1-(1-isobutyrylpiperidin-4-yl)-1H-pyrazole-5-carboxamide], for which the IC50 is 0.24 µM.

The compound `CC1CC1C(=O)N1CCC(n2ncc(Cl)c2C(=O)Nc2ncc(C#Cc3ccccc3)cc2F)CC1` (stereo not drawn) [Compound 91, 4-chloro-N-(3-fluoro-5-(phenylethynyl)pyridin-2-yl)-1-(1-(2-methylcyclopropane-1-carbonyl)piperidin-4-yl)-1H-pyrazole-5-carboxamide] yielded an IC50 of 0.18 µM.

Regarding `CCNC(=O)N1C[C@H]2C[C@H](n3ncc(Cl)c3C(=O)Nc3ncc(C#Cc4cccc(F)c4)cc3C)C[C@H]2C1` [Compound 132, (3aR,5s,6aS)-5-[4-chloro-5-({5-[(3-fluorophenyl)ethynyl]-3-methylpyridin-2-yl}carbamoyl)-1H-pyrazol-1-yl]-N-ethylhexahydrocyclopenta[c]pyrrole-2(1H)-carboxamide], half-maximal inhibition (IC50) required 0.22 µM.

Staying with this test, now noted: read-out: Tl^+ Assay % inhibition at 30 uM (Minus value indicates activation of TREK-1); at 30 uM; CHO-K1 cells stably expressing human TREK-1; minus = activation.
In the case of `Cc1cc(C#Cc2ccc(F)cc2)cnc1NC(=O)c1nn(CCC2CCN(C(=O)C(C)C)CC2)cc1Cl` [Compound 446, 4-chloro-N-(5-((4-fluorophenyl)ethynyl)-3-methylpyridin-2-yl)-1-(2-(1-isobutyrylpiperidin-4-yl)ethyl)-1H-pyrazole-3-carboxamide], the inhibition (usually the drop in the measured response relative to a control, in per cent) at 30 µM was -108%.

For the compound `Cc1cc(C#Cc2ccccc2F)cnc1NC(=O)c1nn(CCC2CCN(C(=O)C3CC3)CC2)cc1Cl` [Compound 441, 4-chloro-1-(2-(1-(cyclopropanecarbonyl)piperidin-4-yl)ethyl)-N-(5-((2-fluorophenyl)ethynyl)-3-methylpyridin-2-yl)-1H-pyrazole-3-carboxamide], the inhibition at 30 µM is -123%.

Take `CC(=O)N1CCC(CCn2cc(Cl)c(C(=O)Nc3ncc(C#Cc4cccs4)cc3C)n2)CC1` [Compound 440, 1-(2-(1-actetylpiperidin-4-yl)ethyl)-4-chloro-N-(3-methyl-5-(thiophen-2-ylethynyl)pyridin-2-yl)-1H-pyrazole-3-carboxamide]: the inhibition at 30 µM was -135%.

Values taken from patent US20240182445A1 (ONO PHARMACEUTICAL CO., LTD., priority 2019, published 2024).
